Experimental data: PMC6277767, “Broad and Region-Specific Impacts of the Synthetic Cannabinoid CP 55,940 in Adolescent and Adult Female Mouse Brains” (Frontiers in Molecular Neuroscience, 2018)

Test system: CD1 female mouse brain lipidome
Experiment: Brain-region lipid levels (HPLC/MS/MS lipidomics) 2 h after single i.p. 3 mg/kg CP 55,940 vs vehicle
Assay type: in vivo
Parameters: N-arachidonoyl phenylalanine level, Mean / N-stearoyl tryptophan level, Mean / N-stearoyl proline level, Mean / N-stearoyl leucine level, Mean / N-stearoyl phenylalanine level, Mean / N-stearoyl serine level, Mean / N-stearoyl methionine level, Mean: unit: moles per gram
Conditions: thalamus, 3 mg/kg CP 55,940
Experimental: The Bloomington Institutional Animal Care and Use Committee of Indiana University reviewed and approved the animal procedures. Female mice from the CD1 strain were utilized to match our study examining THC’s effects on the brain lipidome ([Leishman et al., 2018]). Mice were given a single i.p. injection of either 3 mg/kg CP or 1:1:18 cremophor:ethanol:saline vehicle (please refer to the section “3 mg/kg CP Is Relevant for Synthetic Cannabinoid Abuse and Has Stronger Effects on the Female Mouse Brain Lipidome During Adolescence” for a justification of dose and use of female mice). Three different age groups were given injections: PND 35 and PND 50 adolescents, and adult mice (PND 113). At least eight mice in each age group received CP and at least eight received vehicle. Matching the THC study time course ([Leishman et al., 2018]), mice were sacrificed via rapid decapitation 2 h after injection. Brains were immediately removed and flash-frozen in liquid nitrogen, and then stored at -80°C until dissections were performed. Brains were dissected on an ice-cold dissection plate into the following regions: STR, HIPP, CER, THAL, CTX, HYP, MID, and STEM. These abbreviations for these brain areas will be used exclusively when discussing the results generated by these specific dissections. Each dissected area was immediately placed in liquid nitrogen and then stored at -80°C until used for lipid extraction.
Tissue extracts were performed as previously described ([Bradshaw et al., 2006]; [Stuart et al., 2013]; [Raboune et al., 2014]; [Leishman et al., 2016a],[b], [2017], [2018]). First, samples were shock frozen in liquid nitrogen, weighed, and transferred to a centrifuge tube. The mass of the largest sample was multiplied by 50 to determine how many milliliters of HPLC-grade methanol (Fisher, Fair Lawn, NJ, United States) to add. Then, samples were spiked with 500 pmol deuterium-labeled NAGly (d8NAGly; Cayman Chemical, Ann Arbor, MI, United States). Samples were placed on ice in darkness for 2 h then individually homogenized and centrifuged at 19,000 × g for 20 min at 20°C. Supernatants were diluted with HPLC water (purified in house) to make a solution of 75% water, 25% supernatant. Lipids were partially purified on C18 solid phase extraction columns (Agilent, Palo Alto, CA, United States). A series of four elutions with 1.5 mL of 60%, 75%, 85%, and 100% methanol were collected ([Stuart et al., 2013]; [Leishman et al., 2016a],[b], [2018]).
As previously described ([Bradshaw et al., 2006]; [Tan et al., 2006]; [Smoum et al., 2010]; [Stuart et al., 2013]; [Tortoriello et al., 2013]; [Raboune et al., 2014]; [Leishman et al., 2016a],[b], [2017], [2018]), samples were analyzed using an Applied Biosystems API 3000 triple quadrupole mass spectrometer with electrospray ionization (Foster City, CA, United States). Using an Agilent XDB-C18 reversed phase analytical column and optimized mobile phase gradients, 20 μL from each elution were chromatographed. Two Shimadzu 10ADvp pumps (Columbia, MD, United States) provided the pressure for gradient elution. Mobile phase A: 20% methanol, 80% water (v/v) and 1 mM ammonium acetate (Sigma, St. Louis, MO, United States). Mobile phase B: 100% methanol, 1 mM ammonium acetate. Every method run began with 0% mobile phase B, reached 100% mobile phase B flowing at 0.2 mL/min, and gradually returned to 0% mobile phase B.
This screening library will be referred to as the lipidome when discussing data from this study. HPLC/MS/MS data were analyzed using Analyst software (Applied Biosystems) ([Bradshaw et al., 2006]; [Tan et al., 2006]; [Stuart et al., 2013]; [Tortoriello et al., 2013]; [Raboune et al., 2014]; [Leishman et al., 2016a],[b], [2017], [2018]). Chromatograms (Supplementary Figure 3) were generated by determining the retention time of analytes from the analytical column with a [M-1] or [M+1] parent peak and a fragmentation peak corresponding to the programmed values. […]

CCCCCCC(C)(C)c1ccc([C@@H]2C[C@H](O)CC[C@H]2CCCO)c(O)c1 [CP 55,940]
N-oleoyl glycine Direction (relative to Veh) (PND 35): ↓
N-oleoyl glycine Magnitude (x Veh level) (PND 35): 0.91 x Veh level
N-oleoyl leucine Direction (relative to Veh) (PND 35): ↑
N-oleoyl leucine Magnitude (x Veh level) (PND 35): 1.27 x Veh level
N-oleoyl valine Direction (relative to Veh) (PND 35): ↑
N-oleoyl valine Magnitude (x Veh level) (PND 35): 1.44 x Veh level
N-palmitoyl GABA Direction (relative to Veh) (PND 35): ↑
N-palmitoyl GABA Magnitude (x Veh level) (PND 35): 1.21 x Veh level
N-palmitoyl leucine, Direction (relative to Veh) (PND 35): ↑
N-palmitoyl leucine, Magnitude (x Veh level) (PND 35): 1.42 x Veh level
N-palmitoyl phenylalanine Direction (relative to Veh) (PND 35): ↑
N-palmitoyl phenylalanine Magnitude (x Veh level) (PND 35): 1.35 x Veh level
N-palmitoyl tyrosine Magnitude (x Veh level) (PND 35): 1.34 x Veh level
N-palmitoyl tyrosine, Direction (relative to Veh) (PND 35): ↑
N-palmitoyl valine Direction (relative to Veh) (PND 35): ↑
N-palmitoyl valine Magnitude (x Veh level) (PND 35): 1.79 x Veh level
N-stearoyl serine Direction (relative to Veh) (PND 35): ↓
N-stearoyl serine Magnitude (x Veh level) (PND 35): 0.83 x Veh level
N-stearoyl tyrosine Direction (relative to Veh) (PND 35): ↓
N-stearoyl tyrosine Magnitude (x Veh level) (PND 35): 0.81 x Veh level
N-stearoyl valine Direction (relative to Veh) (PND 35): ↑
N-stearoyl valine Magnitude (x Veh level) (PND 35): 1.26 x Veh level
PGE2 Direction (relative to Veh) (PND 35): ↑
PGE2 Magnitude (x Veh level) (PND 35): 1.16 x Veh level
phosphoLEA Direction (relative to Veh) (PND 35): ↑
phosphoLEA Magnitude (x Veh level) (PND 35): 1.24 x Veh level
2-arachidonoyl glycerol level, Mean (PND 35 adolescent female mice): 3.59E-10
2-linoleoyl glycerol level, Mean (PND 35 adolescent female mice): 1.52E-10
2-oleoyl glycerol level, Mean (PND 35 adolescent female mice): 1.68E-09
2-palmitoyl glycerol level, Mean (PND 35 adolescent female mice): 5.34E-10
6-ketoPGF1α level, Mean (PND 35 adolescent female mice): 1.42E-11
Arachidonic acid level, Mean (PND 35 adolescent female mice): 2.14E-09
Linoleic acid level, Mean (PND 35 adolescent female mice): 5.7E-10
N- stearoyl valine level, Mean (PND 35 adolescent female mice): 1.07E-12
N-arachidonoyl GABA level, Mean (PND 35 adolescent female mice): 2.62E-11
N-arachidonoyl alanine level, Mean (PND 35 adolescent female mice): 1.02E-11
N-arachidonoyl dopamine level, Mean (PND 35 adolescent female mice): BDL
N-arachidonoyl ethanolamine level, Mean (PND 35 adolescent female mice): 2.8E-11
N-arachidonoyl glycine level, Mean (PND 35 adolescent female mice): 4.62E-11
N-arachidonoyl phenylalanine level, Mean (PND 35 adolescent female mice): 1.31E-12
N-arachidonoyl serine level, Mean (PND 35 adolescent female mice): 6.28E-12
N-arachidonoyl taurine level, Mean (PND 35 adolescent female mice): 5.99E-11
N-arachidonoyl tryptophan level, Mean (PND 35 adolescent female mice): BDL
N-arachidonoyl tyrosine level, Mean (PND 35 adolescent female mice): 7.9E-13
N-docosahexaenoyl GABA level, Mean (PND 35 adolescent female mice): 2.9E-12
N-docosahexaenoyl alanine level, Mean (PND 35 adolescent female mice): 4.07E-12
N-docosahexaenoyl ethanolamine level, Mean (PND 35 adolescent female mice): 4.03E-11
N-docosahexaenoyl glycine level, Mean (PND 35 adolescent female mice): 1.76E-11
N-docosahexaenoyl leucine level, Mean (PND 35 adolescent female mice): 8.15E-13
N-docosahexaenoyl phenylalanine level, Mean (PND 35 adolescent female mice): 1.14E-12
N-docosahexaenoyl proline level, Mean (PND 35 adolescent female mice): BDL
N-docosahexaenoyl serine level, Mean (PND 35 adolescent female mice): 2.59E-11
N-docosahexaenoyl tyrosine level, Mean (PND 35 adolescent female mice): 7.13E-13
N-docosahexaenoyl valine level, Mean (PND 35 adolescent female mice): 2E-13
N-linoleoyl GABA level, Mean (PND 35 adolescent female mice): 9.8E-13
N-linoleoyl alanine level, Mean (PND 35 adolescent female mice): 1.66E-12
N-linoleoyl ethanolamine level, Mean (PND 35 adolescent female mice): 5.07E-11
N-linoleoyl glycine level, Mean (PND 35 adolescent female mice): 4.36E-12
N-linoleoyl leucine level, Mean (PND 35 adolescent female mice): 3.45E-13
N-linoleoyl methionine level, Mean (PND 35 adolescent female mice): BDL
N-linoleoyl proline level, Mean (PND 35 adolescent female mice): BDL
N-linoleoyl serine level, Mean (PND 35 adolescent female mice): 5.67E-11
N-linoleoyl tryptophan level, Mean (PND 35 adolescent female mice): BDL
N-linoleoyl tyrosine level, Mean (PND 35 adolescent female mice): BDL
N-nervonoyl valine level, Mean (PND 35 adolescent female mice): BDL
N-oleoyl GABA level, Mean (PND 35 adolescent female mice): 5.58E-12
N-oleoyl alanine level, Mean (PND 35 adolescent female mice): 7.79E-12
N-oleoyl dopamine level, Mean (PND 35 adolescent female mice): BDL
N-oleoyl ethanolamine level, Mean (PND 35 adolescent female mice): 1.71E-10
N-oleoyl glycine level, Mean (PND 35 adolescent female mice): 2.36E-11
N-oleoyl leucine level, Mean (PND 35 adolescent female mice): 2.09E-12
N-oleoyl methionine level, Mean (PND 35 adolescent female mice): 1.17E-12
N-oleoyl phenylalanine level, Mean (PND 35 adolescent female mice): 1.2E-12
N-oleoyl serine level, Mean (PND 35 adolescent female mice): 3.24E-10
N-oleoyl tryptophan level, Mean (PND 35 adolescent female mice): 1.87E-13
N-oleoyl tyrosine level, Mean (PND 35 adolescent female mice): 4.87E-13
N-oleoyl valine level, Mean (PND 35 adolescent female mice): 9.01E-13
N-palmitoyl GABA level, Mean (PND 35 adolescent female mice): 1.41E-11
N-palmitoyl alanine level, Mean (PND 35 adolescent female mice): 1.21E-11
N-palmitoyl ethanolamine level, Mean (PND 35 adolescent female mice): 8.69E-11
N-palmitoyl glycine level, Mean (PND 35 adolescent female mice): 4.99E-11
N-palmitoyl leucine level, Mean (PND 35 adolescent female mice): 4.1E-12
N-palmitoyl methionine level, Mean (PND 35 adolescent female mice): 1.84E-12
N-palmitoyl phenylalanine level, Mean (PND 35 adolescent female mice): 2.75E-12
N-palmitoyl proline level, Mean (PND 35 adolescent female mice): 1.05E-12
N-palmitoyl serine level, Mean (PND 35 adolescent female mice): 1.05E-10
N-palmitoyl tryptophan level, Mean (PND 35 adolescent female mice): 4.31E-13
N-palmitoyl tyrosine level, Mean (PND 35 adolescent female mice): 1.31E-12
N-palmitoyl valine level, Mean (PND 35 adolescent female mice): 2.65E-12
N-stearoyl GABA level, Mean (PND 35 adolescent female mice): 1.05E-11
N-stearoyl alanine level, Mean (PND 35 adolescent female mice): 1.24E-11
N-stearoyl ethanolamine level, Mean (PND 35 adolescent female mice): 1.97E-11
N-stearoyl glycine level, Mean (PND 35 adolescent female mice): 2.74E-11
N-stearoyl leucine level, Mean (PND 35 adolescent female mice): 1.66E-12
N-stearoyl methionine level, Mean (PND 35 adolescent female mice): 1.9E-12
N-stearoyl phenylalanine level, Mean (PND 35 adolescent female mice): 2.22E-12
N-stearoyl proline level, Mean (PND 35 adolescent female mice): 5.08E-13
N-stearoyl serine level, Mean (PND 35 adolescent female mice): 3.19E-11
N-stearoyl tryptophan level, Mean (PND 35 adolescent female mice): 1.26E-12
N-stearoyl tyrosine level, Mean (PND 35 adolescent female mice): 1.15E-13
Oleic acid level, Mean (PND 35 adolescent female mice): 1.67E-09
PGE2 level, Mean (PND 35 adolescent female mice): 6.31E-10
PhosphoLEA level, Mean (PND 35 adolescent female mice): 2.93E-11
